# Laboratory results from patent US12428415B2, “Matriptase 2 inhibitors and uses thereof” (Disc Medicine, Inc., priority 2018, dated 2025).
# Biological target: T1, Human Recombinant Matriptase 2 (Homo sapiens, UniProt Q8IU80)
# T1 construct: purchased Enzo Life Sciences (an in-house preparation was also used) ALX-201-752-1
# T1 sequence (Q8IU80 1-811): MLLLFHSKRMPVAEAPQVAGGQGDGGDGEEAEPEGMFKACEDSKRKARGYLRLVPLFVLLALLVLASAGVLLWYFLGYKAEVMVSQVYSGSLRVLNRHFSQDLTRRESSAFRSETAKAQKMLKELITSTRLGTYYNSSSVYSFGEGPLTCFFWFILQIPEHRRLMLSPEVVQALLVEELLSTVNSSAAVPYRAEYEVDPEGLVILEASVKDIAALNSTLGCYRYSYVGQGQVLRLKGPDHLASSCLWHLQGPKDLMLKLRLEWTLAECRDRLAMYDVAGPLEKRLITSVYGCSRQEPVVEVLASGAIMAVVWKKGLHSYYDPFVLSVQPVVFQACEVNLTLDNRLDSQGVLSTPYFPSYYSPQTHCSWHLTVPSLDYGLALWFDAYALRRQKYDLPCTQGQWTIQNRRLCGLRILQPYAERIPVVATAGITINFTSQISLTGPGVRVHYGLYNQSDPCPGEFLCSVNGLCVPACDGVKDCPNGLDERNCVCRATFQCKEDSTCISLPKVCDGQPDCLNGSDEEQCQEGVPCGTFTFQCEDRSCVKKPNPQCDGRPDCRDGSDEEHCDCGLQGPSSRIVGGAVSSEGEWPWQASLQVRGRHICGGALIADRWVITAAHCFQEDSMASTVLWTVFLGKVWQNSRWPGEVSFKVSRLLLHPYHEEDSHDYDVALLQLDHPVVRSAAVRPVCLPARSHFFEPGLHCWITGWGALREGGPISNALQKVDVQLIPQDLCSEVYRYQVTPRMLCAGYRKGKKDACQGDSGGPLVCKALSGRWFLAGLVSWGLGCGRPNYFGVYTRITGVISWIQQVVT
# Test: Matriptase 2 fluorescence based inhibition assay, Method A (100 mM TRIS pH 9, 1 mg/mL BSA)
# Assay type: biochemical
# Conditions: at 1 uM; Assay Used = A; read-out: Mar-2 % inhibition at 1 uM
# Procedure, shortened: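 At 25° C in 100 mM TRIS pH 9 with 1 mg/mL BSA and 1% DMSO, compounds were preincubated 30 min with 7 nM commercial or 15 nM in-house protein before adding 100 μM Boc-Gln-Ala-Arg-7-amido-4-methyl coumarin. Fluorescence at 360/480 nm after 60 min; single points at 1 and 10 μM, IC50 by variable-slope nonlinear regression.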
row,SMILES,inhibition at 1 µM
1,"CCNC(=O)c1ccc(Cn2c(C(=O)NC3CCC(C)CC3)cc3ccc(C(=N)N)cc32)cc1 (stereo not drawn) [Compound I-221, 6-Carbamimidoyl-1-(4-(ethylcarbamoyl)benzyl)-N-(4-methylcyclohexyl)-1H-indole-2-carboxamide]",0 to 25%
2,"N=C(N)c1ccc2cc(C(=O)NCC3CCCCC3)n(Cc3ccc(C(=O)NCCO)cc3)c2c1 [Compound I-222, 6-Carbamimidoyl-N-(cyclohexylmethyl)-1-(4-((2-hydroxyethyl)carbamoyl)benzyl)-1H-indole-2-carboxamide]",0 to 25%
3,"N=C(N)c1ccc2cc(C(=O)NCC3CCCCC3)n(Cc3ccc(C(=O)NCCN)cc3)c2c1 [Compound I-225, 1-(4-((2-Aminoethyl)carbamoyl)benzyl)-6-carbamimidoyl-N-(cyclohexylmethyl)-1H-indole-2-carboxamide]",0 to 25%
4,N=C(N)c1ccc2cc(C(=O)NCC3CCCCC3)n(Cc3ccc(B(O)O)cc3)c2c1 [Compound I-231],0 to 25%
5,"CN(CC1CCCCC1)C(=O)c1cc2ccc(C(=N)N)cc2n1Cc1ccc(C(N)=O)cc1 [Compound I-232, 6-Carbamimidoyl-1-(4-carbamoylbenzyl)-N-(cyclohexylmethyl)-N-methyl-1H-indole-2-carboxamide]",0 to 25%
6,N=C(N)c1ccc2cc(C(=O)N[C@H]3CC[C@H](N)CC3)n(Cc3ccc(-c4ccccc4)cc3)c2c1 [Compound I-234],25 to 50%
7,N=C(N)c1ccc2cc(C(=O)NC3CCC(F)(F)CC3)n(Cc3ccc(-c4ccccc4)cc3)c2c1 [Compound I-235],0 to 25%
8,CC1CCC(NC(=O)c2c(Cl)c3ccc(C(=N)N)cc3n2Cc2ccc(-c3ccccc3)cc2)CC1 (stereo not drawn) [Compound I-237],0 to 25%
9,CCc1ccc(-c2cccc(Cn3c(C(=O)NC4CCC(N)CC4)cc4ccc(C(=N)N)cc43)c2)cc1 (stereo not drawn) [Compound I-238],25 to 50%
10,CCOc1ccc(-c2cccc(Cn3c(C(=O)N[C@H]4CC[C@H](N)CC4)cc4ccc(C(=N)N)cc43)c2)cc1 [Compound I-239],25 to 50%
11,N=C(N)c1ccc2cc(C(=O)NC3CCC(N)CC3)n(Cc3ccc(Oc4ccc(F)cc4)cc3)c2c1 (stereo not drawn) [Compound I-243],50 to 75%
12,N=C(N)c1ccc2cc(C(=O)NC34CC5CC(CC(C5)C3)C4)n(Cc3ccc(Oc4ccc(F)cc4)cc3)c2c1 [Compound I-245],25 to 50%
13,N=C(N)c1ccc2c(Br)c(C(=O)N[C@H]3CC[C@H](N)CC3)n(Cc3ccc(Oc4ccccc4)cc3)c2c1 [Compound I-250],25 to 50%
14,N=C(N)c1ccc2c(Cl)c(C(=O)N[C@H]3CC[C@H](N)CC3)n(Cc3ccc(Oc4ccccc4)cc3)c2c1 [Compound I-251],25 to 50%
15,"CCOC(=O)Nc1c(C(=O)N[C@H]2CC[C@H](N)CC2)n(Cc2ccc(Oc3ccccc3)cc2)c2cc(C(=N)NO)ccc12 [Compound I-254, Ethyl (2-(((1r,4r)-4-aminocyclohexyl)carbamoyl)-6-((Z)—N′-hydroxycarbamimidoyl)-1-(4-phenoxybenzyl)-1H-indol-3-yl)carbamate]",25 to 50%
16,"N=C(N)c1ccc2cc(C(=O)NC3CCC(F)(F)CC3)n(Cc3cccc(NC(=O)CCN)c3)c2c1 [Compound I-260, 1-(3-(3-Aminopropanamido)benzyl)-6-carbamimidoyl-N-(4,4-difluorocyclohexyl)-1H-indole-2-carboxamide]",0 to 25%
17,"N=C(N)c1ccc2cc(C(=O)N[C@H]3CC[C@H](N)CC3)n(Cc3ccc(N)cc3)c2c1 [Compound I-261, 1-(4-Aminobenzyl)-N-((1r,4r)-4-aminocyclohexyl)-6-carbamimidoyl-1H-indole-2-carboxamide]",25 to 50%

# Now from value to compound:
row,inhibition at 1 µM,SMILES
1,0 to 25%,"CNC(=O)c1ccc(Cn2c(C(=O)NC3CCC(C)CC3)cc3ccc(C(=N)N)cc32)cc1 (stereo not drawn) [Compound I-220, 6-Carbamimidoyl-1-(4-(methylcarbamoyl)benzyl)-N-(4-methylcyclohexyl)-1H-indole-2-carboxamide]"
2,0 to 25%,"CC1CCC(NC(=O)c2cc3ccc(C(=N)N)cc3n2Cc2ccc(C(=O)NCCO)cc2)CC1 (stereo not drawn) [Compound I-223, 6-Carbamimidoyl-1-(4-((2-hydroxyethyl)carbamoyl)benzyl)-N-(4-methylcyclohexyl)-1H-indole-2-carboxamide]"
3,0 to 25%,"CC1CCC(NC(=O)c2cc3ccc(C(=N)N)cc3n2Cc2ccc(C(=O)NCCN)cc2)CC1 (stereo not drawn) [Compound I-224, 1-(4-((2-Aminoethyl)carbamoyl)benzyl)-6-carbamimidoyl-N-(4-methylcyclohexyl)-1H-indole-2-carboxamide]"
4,0 to 25%,"N=C(N)c1ccc2cc(C(=O)NCC3CCCCC3)n(Cc3ccc(C(N)=O)cc3F)c2c1 [Compound I-227, 6-Carbamimidoyl-1-(2-Fluoro-4-carbamoyl-benzyl)-N-(cyclohexylmethyl)-1H-indole-2-carboxamide]"
5,0 to 25%,"N=C(N)c1ccc2cc(C(=O)NCC3CCCCC3)n(Cc3ccc(C(N)=O)cc3Cl)c2c1 [Compound I-228, 6-Carbamimidoyl-1-(2-Chloro-4-carbamoyl-benzyl)-N-(cyclohexylmethyl)-1H-indole-2-carboxamide]"
6,0 to 25%,"N=C(N)c1ccc2cc(C(=O)NCC3CCCCC3)n(Cc3ccc(C(N)=O)c(Cl)c3)c2c1 [Compound I-229, 6-Carbamimidoyl-1-(3-Chloro-4-carbamoyl-benzyl)-N-(cyclohexylmethyl)-1H-indole-2-carboxamide]"
7,0 to 25%,"N=C(N)c1ccc2cc(C(=O)NC3CCC(F)(F)CC3)n(Cc3cccc(C(N)=O)c3)c2c1 [Compound I-230, 6-Carbamimidoyl-1-(3-carbamoylbenzyl)-N-(4-difluorocyclohexyl)-1H-indole-2-carboxamide]"
8,0 to 25%,N=C(N)c1ccc2c(Cl)c(C(=O)NCC3CCCCC3)n(Cc3ccc(-c4ccccc4)cc3)c2c1 [Compound I-236]
9,50 to 75%,N=C(N)c1ccc2cc(C(=O)N[C@H]3CC[C@H](N)CC3)n(Cc3cccc(Oc4ccccc4)c3)c2c1 [Compound I-240]
10,25 to 50%,"N=C(N)c1ccc2cc(C(=O)N[C@H]3CC[C@H](NC(=O)CCN)CC3)n(Cc3ccc(Oc4ccccc4)cc3)c2c1 [Compound I-242, N-((1r,4r)-4-(3-Aminopropanamido)cyclohexyl)-6-carbamimidoyl-1-(4-phenoxybenzyl)-1H-indole-2-carboxamide]"
11,25 to 50%,N=C(N)c1ccc2cc(C(=O)NC34CC5CC(CC(O)(C5)C3)C4)n(Cc3ccc(Oc4ccc(F)cc4)cc3)c2c1 [Compound I-244]
12,50 to 75%,N=C(N)c1ccc2cc(C(=O)N[C@H]3CC[C@H](N)CC3)n(Cc3ccc(Oc4ccc(F)cc4)nc3)c2c1 [Compound I-246]
13,50 to 75%,N=C(N)c1ccc2cc(C(=O)N[C@H]3CC[C@H](N)CC3)n(Cc3ccc(Oc4ccc(Cl)cc4)cc3)c2c1 [Compound I-247]
14,0 to 25%,"N=C(N)c1ccc2c(N)c(C(=O)N[C@H]3CC[C@H](NC(=O)O)CC3)n(Cc3ccc(Oc4ccccc4)cc3)c2c1 [Compound I-253, ((1r,4r)-4-(3-Amino-6-carbamimidoyl-1-(4-phenoxybenzyl)-1H-indole-2-carboxamido)-cyclohexyl) carbamic Acid]"
15,25 to 50%,"N=C(N)c1ccc2cc(C(=O)N[C@H]3CC[C@H](N)CC3)n(Cc3cccc(N)c3)c2c1 [Compound I-256, 1-(3-Aminobenzyl)-N-((1r,4r)-4-aminocyclohexyl)-6-carbamimidoyl-1H-indole-2-carboxamide]"
16,50 to 75%,"N=C(N)c1ccc2cc(C(=O)N[C@H]3CC[C@H](N)CC3)n(Cc3cccc(NC(=O)CCN)c3)c2c1 [Compound I-257, N-((1r,4r)-4-aminocyclohexyl)-1-(3-(3-aminopropanamido)benzyl)-6-carbamimidoyl-1H-indole-2-carboxamide]"
17,50 to 75%,"N=C(N)c1ccc2cc(C(=O)N[C@H]3CC[C@H](N)CC3)n(Cc3cccc(NC(=O)C4CNC4)c3)c2c1 [Compound I-258, N-((1r,4r)-4-Aminocyclohexyl)-1-(3-(azetidine-3-carboxamido)benzyl)-6-carbamimidoyl-1H-indole-2-carboxamide]"
18,25 to 50%,"N=C(N)c1ccc2cc(C(=O)N[C@H]3CC[C@H](N)CC3)n(Cc3cccc(C(=O)NCCC(=O)O)c3)c2c1 [Compound I-259, 3-(3-((2-(((1r,4r)-4-Amiocyclohexyl)carbamoyl)-6-carbamimidoyl-1H-indol-1-yl)methyl)benzamido)propanoic Acid]"
19,25 to 50%,"N=C(N)c1ccc2cc(C(=O)N[C@H]3CC[C@H](N)CC3)n(Cc3ccc(NC(=O)CCN)cc3)c2c1 [Compound I-262, N-((1r,4r)-4-Aminocyclohexyl)-1-(4-(3-aminopropanamido)benzyl)-6-carbamimidoyl-1H-indole-2-carboxamide]"
